# Legend:
# Assay in all cases: microbe, parasite or virus in culture
# Assay type in all cases: cell-based, HIV-1
# [1] = tested on: T332S/V362I/Pr R41G virus; settings: Human immunodeficiency virus 1, MT2, read-out: T332S/V362I/pr41G EC50
# In short: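 Renilla luciferase NL4-3 reporter virus (Gag P373S background) carrying Gag T332S/V362I plus protease R41G, inoculum normalized by luciferase signal, infected MT-2 cells (10,000/well). Compounds 3-fold diluted, 1% DMSO final. After 4–5 days at 37 °C, virus yield measured as Renilla luciferase activity in a multiple-cycle assay.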
# [2] = tested on: NLRepRlucP373S recombinant wild type (WT) virus; settings: Human immunodeficiency virus 1, MT2, read-out: WT EC50
# In short: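 MT-2 cells infected with NLRepRlucP373S Renilla luciferase reporter virus (NL4-3, Gag P373S), inocula normalized by luciferase signal; compounds 3-fold serially diluted, 1% DMSO final. Virus yield read by Renilla luciferase after 4-5 days at 37 °C. EC50/EC90 from median effect equation; background = signal at NFV 3 μM.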
# [3] = tested on: A364V site directed mutant virus; settings: Human immunodeficiency virus 1, MT2, read-out: A364V EC50
# In short: (§1)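 Multiple-cycle assay in MT-2 cells infected with Renilla luciferase NL4-3 (Gag P373S background) carrying site-directed Gag A364V or V370A/ΔT371 changes, inocula normalized by luciferase signal. 10,000 cells/well, 3-fold compound dilutions, 1% DMSO, 4–5 days at 37°C; yield read as Renilla luciferase.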
# gag V370A/ΔT371 virus = settings: Human immunodeficiency virus 1, MT2, read-out: V370A/ΔT371 EC50
# In short: as §1
Compound,EC50 [1],EC50 [2],EC50 [3],EC50 (gag V370A/ΔT371 virus)
"C=C(C)[C@@H]1CC[C@]2(NC[C@H](O)COC)CC[C@]3(C)[C@H](CC[C@@H]4[C@@]5(C)CC=C(C6=CC[C@](COc7ncccc7C(N)=O)(C(=O)O)CC6)C(C)(C)[C@@H]5CC[C@]43C)[C@@H]12 [Example A12, (R)-1-(((3-carbamoylpyridin-2-yl)oxy)methyl)-4-((1R,3aS,5aR,5bR,7aR,11aS,11bR,13aR,13bR)-3a-(((S)-2-hydroxy-3-methoxypropyl)amino)-5a,5b,8,8,11a-pentamethyl-1-(prop-1-en-2-yl)-2,3,3a,4,5,5a,5b,6,7,7a,8,11,11a,11b,12,13,13a,13b-octadecahydro-1H-cyclopenta[a]chrysen-9-yl)cyclohex-3-enecarboxylic acid]",59 nM,2 nM,69 nM,59 nM
"C=C(C)[C@@H]1CC[C@]2(NCCN3CCS(=O)(=O)CC3)CC[C@]3(C)[C@H](CC[C@@H]4[C@@]5(C)CC=C(C6=CC[C@@](COc7cnccn7)(C(=O)O)CC6)C(C)(C)[C@@H]5CC[C@]43C)[C@@H]12 [Example 32, (S)-4-((1R,3aS,5aR,5bR,7aR,11aS,11bR,13aR,13bR)-3a-((2-(1,1-dioxidothiomorpholino)ethyl)amino)-5a,5b,8,8,11a-pentamethyl-1-(prop-1-en-2-yl)-2,3,3a,4,5,5a,5b,6,7,7a,8,11,11a,11b,12,13,13a,13b-octadecahydro-1H-cyclopentatalchrysen-9-yl)-1-((pyrazin-2-yloxy)methyl)cyclohex-3-ene-1-carboxylic acid]",< 50 nM,< 50 nM,< 50 nM,< 50 nM
"C=C(C)[C@@H]1CC[C@]2(NC[C@@H](O)CO)CC[C@]3(C)[C@H](CC[C@@H]4[C@@]5(C)CC=C(C6=CC[C@](COc7ncccc7C#N)(C(=O)O)CC6)C(C)(C)[C@@H]5CC[C@]43C)[C@@H]12 [Example A7, (R)-1-(((3-cyanopyridin-2-yl)oxy)methyl)-4-((1R,3aS,5aR,5bR,7aR,11aS,11bR,13aR,13bR)-3a-(((R)-2,3-dihydroxypropyl)amino)-5a,5b,8,8,11a-pentamethyl-1-(prop-1-en-2-yl)-2,3,3a,4,5,5a,5b,6,7,7a,8,11,11a,11b,12,13,13a,13b-octadecahydro-1H-cyclopenta[a]chrysen-9-yl)cyclohex-3-enecarboxylic acid]",5 nM,3 nM,477 nM,5 nM
"C=C(C)[C@@H]1CC[C@]2(NCCN3CCS(=O)(=O)CC3)CC[C@]3(C)[C@H](CC[C@@H]4[C@@]5(C)CC=C(C6=CCC(COc7cc(C#N)ccn7)(C(=O)O)CC6)C(C)(C)[C@@H]5CC[C@]43C)[C@@H]12 (stereo partly drawn) [Example 37, 1-(((4-cyanopyridin-2-yl)oxy)methyl)-4-((1R,3aS,5aR,5bR,7aR,11aS,11bR,13aR,13bR)-3a-((2-(1,1-dioxidothiomorpholino)ethyl)amino)-5a,5b,8,8,11a-pentamethyl-1-(prop-1-en-2-yl)-2,3,3a,4,5,5a,5b,6,7,7a,8,11,11a,11b,12,13,13a,13b-octadecahydro-1H-cyclopenta[a]chrysen-9-yl)cyclohex-3-ene-1-carboxylic acid]",> 50 nM,< 50 nM,> 50 nM,> 50 nM
"C=C(C)[C@@H]1CC[C@]2(NC[C@@H](O)COC)CC[C@]3(C)[C@H](CC[C@@H]4[C@@]5(C)CC=C(C6=CC[C@](COc7ncccc7C#N)(C(=O)O)CC6)C(C)(C)[C@@H]5CC[C@]43C)[C@@H]12 [Example A9, (R)-1-(((3-cyanopyridin-2-yl)oxy)methyl)-4-((1R,3aS,5aR,5bR,7aR,11aS,11bR,13aR,13bR)-3a-(((R)-2-hydroxy-3-methoxypropyl)amino)-5a,5b,8,8,11a-pentamethyl-1-(prop-1-en-2-yl)-2,3,3a,4,5,5a,5b,6,7,7a,8,11,11a,11b,12,13,13a,13b-octadecahydro-1H-cyclopentalalchrysen-9-yl)cyclohex-3-enecarboxylic acid]",12 nM,3 nM,300 nM,12 nM
